ChEMBL document CHEMBL6114945, “Cyclic vinyl sulfones activate NRF2 to protect from oxidative stress-induced programmed necrosis” (Bioorg Med Chem Lett, 2025)
Calls of active or inactive are those of the source. No cut-off for these calls is given here. Where a SMILES comes first, the peptide text is derived from it. The star is where a group is joined. Cbz = O=C(OCc1ccccc1)*

Columns and labels:
[1] = biological target: T1, Keap1/Nrf2 (Homo sapiens) (UniProt Q16236+Q14145); experiment: Inhibition of KEAP1 BTB domain-NRF2 protein-protein interaction in human HeLa cells assessed as increase in NRF2 level at 50 nM measured after 6 hrs by Western blotting analysis; assay type: cell-based
[2] = biological target: T1, Keap1/Nrf2 (Homo sapiens); experiment: Inhibition of KEAP1 BTB domain-NRF2 protein-protein interaction in human HeLa cells assessed as upregulation of NRF2 level at 2.5 uM measured after 18 hrs by Western blotting analysis; assay type: cell-based
A549 [3] = experiment: Inhibition of KEAP1 mutant-NRF2 protein-protein interaction in human A549 cells assessed as upregulation of HO-1 level at 2.5 to 20 uM measured after 18 hrs by Western blotting analysis; assay type: cell-based; conditions: dose 2.5-20 µM
HCT-116 [4] = experiment: Cytotoxicity against human HCT-116 cells at >20 uM; assay type: toxicity, cell-based; conditions: hct-116, 20 µM
A549 [5] = experiment: Inhibition of KEAP1 mutant-NRF2 protein-protein interaction in human A549 cells assessed as upregulation of NRF2 level at 2.5 to 20 uM measured after 18 hrs by Western blotting analysis; assay type: cell-based; conditions: dose 2.5-20 µM
[6] = biological target: T1, Keap1/Nrf2 (Homo sapiens); experiment: Inhibition of KEAP1 BTB domain-NRF2 protein-protein interaction in human HCT-116 cells assessed as upregulation of NRF2 level at 2.5 to 20 uM measured after 18 hrs by Western blotting analysis; assay type: cell-based; conditions: dose 2.5-20 µM
[7] = biological target: T1, Keap1/Nrf2 (Homo sapiens); experiment: Inhibition of KEAP1 BTB domain-NRF2 protein-protein interaction in human HeLa cells assessed as upregulation of HO-1 level at 5 uM measured after 18 hrs by Western blotting analysis; assay type: cell-based
[8] = biological target: T1, Keap1/Nrf2 (Homo sapiens); experiment: Inhibition of KEAP1-NRF2 protein-protein interaction in human HeLa cells assessed as increase in NRF2 level at 50 uM measured after 6 hrs by Western blotting analysis; assay type: cell-based
[9] = biological target: T1, Keap1/Nrf2 (Homo sapiens); experiment: Inhibition of KEAP1 BTB domain-NRF2 protein-protein interaction in human NCI-H1299 cells assessed as upregulation of SLC7A11 expression at 1.25 to 20 uM measured after 18 hrs by Western blot analysis; assay type: cell-based; conditions: dose 1.25-20 µM
[10] = biological target: T1, Keap1/Nrf2 (Homo sapiens); experiment: Inhibition of KEAP1 BTB domain-NRF2 protein-protein interaction in human NCI-H1299 cells assessed as upregulation of GCSc expression at 1.25 to 20 uM measured after 18 hrs by Western blot analysis; assay type: cell-based; conditions: dose 1.25-20 µM
[11] = biological target: T1, Keap1/Nrf2 (Homo sapiens); experiment: Inhibition of KEAP1 BTB domain-NRF2 protein-protein interaction in human HeLa cells assessed as upregulation of NQO1 mRNA expression at 40 uM measured after 4 to 8 hrs by RT-PCR analysis; assay type: cell-based; conditions: time 4-8 hrs
NCI-H1299 [12] = experiment: Protection against RSL3-induced ferroptosis in human NCI-H1299 cells at 5 to 10 uM preincubated for 6 hrs followed by RSL3 addition and measured after 18 hrs by crystal violet staining based assay; assay type: functional, cell-based; conditions: dose 5-10 µM, time 24.0 hrs
[13] = biological target: T1, Keap1/Nrf2 (Homo sapiens); experiment: Inhibition of KEAP1 BTB domain-NRF2 protein-protein interaction in human HeLa cells assessed as upregulation of p-62 mRNA expression at 20 to 40 uM measured after 8 hrs by RT-PCR analysis; assay type: cell-based; conditions: dose 20-40 µM
[14] = biological target: T1, Keap1/Nrf2 (Homo sapiens); experiment: Inhibition of KEAP1 BTB domain-NRF2 protein-protein interaction in human HeLa cells assessed as upregulation of HO-1 level at 10 uM measured after 8 to 24 hrs by Western blotting analysis; assay type: cell-based; conditions: time 8-24 hrs
[15] = biological target: T1, Keap1/Nrf2 (Homo sapiens); experiment: Inhibition of KEAP1 BTB domain-NRF2 protein-protein interaction in human HeLa cells assessed as upregulation of NRF2 mRNA expression at 20 to 40 uM measured after 8 hrs by RT-PCR analysis; assay type: cell-based; conditions: dose 20-40 µM
HCT-116 [16] = experiment: Cytotoxicity against human HCT-116 cells at 40 uM; assay type: toxicity, cell-based; conditions: hct-116, 40 µM
[17] = biological target: T1, Keap1/Nrf2 (Homo sapiens); experiment: Inhibition of KEAP1 BTB domain-NRF2 protein-protein interaction in human NCI-H1299 cells assessed as upregulation of p-62 expression at 1.25 to 20 uM measured after 18 hrs by Western blot analysis; assay type: cell-based; conditions: dose 1.25-20 µM
[18] = biological target: T1, Keap1/Nrf2 (Homo sapiens); experiment: Inhibition of KEAP1 BTB domain-NRF2 protein-protein interaction in human HeLa cells assessed as upregulation of NQO1 mRNA expression at 20 uM measured after 8 hrs by RT-PCR analysis; assay type: cell-based
HeLa [19] = experiment: Cytotoxicity against human HeLa cells at 40 uM; assay type: toxicity, cell-based
[20] = biological target: T1, Keap1/Nrf2 (Homo sapiens); experiment: Inhibition of KEAP1 BTB domain-NRF2 protein-protein interaction in human HeLa cells assessed as upregulation of NRF2 mRNA expression at 20 to 40 uM measured after 4 hrs by RT-PCR analysis; assay type: cell-based; conditions: dose 20-40 µM
[21] = biological target: T1, Keap1/Nrf2 (Homo sapiens); experiment: Inhibition of KEAP1 BTB domain-NRF2 protein-protein interaction in human HeLa cells assessed as upregulation of HO-1 mRNA expression at 20 uM measured after 4 to 8 hrs by RT-PCR analysis; assay type: cell-based; conditions: time 4-8 hrs
[22] = biological target: Kelch-like ECH-associated protein 1 (Homo sapiens) (UniProt Q14145); experiment: Binding affinity to KEAP1 in human HeLa cells assessed as appearance of high molecular weight bands of modified KEAP1 at 10 uM measured after 4 to 24 hrs by Western blotting analysis; assay type: cell-based; conditions: time 4-24 hrs
[23] = biological target: T1, Keap1/Nrf2 (Homo sapiens); experiment: Inhibition of KEAP1 BTB domain-NRF2 protein-protein interaction in human HeLa cells assessed as upregulation of NRF2 level at 5 to 40 uM measured after 18 hrs by Western blotting analysis; assay type: cell-based; conditions: dose 5-40 µM
[24] = biological target: T1, Keap1/Nrf2 (Homo sapiens); experiment: Inhibition of KEAP1 BTB domain-NRF2 protein-protein interaction in human HeLa cells assessed as upregulation of NRF2 level at 10 uM measured after 8 to 24 hrs by Western blotting analysis; assay type: cell-based; conditions: time 8-24 hrs
HeLa [25] = experiment: Effect on KEAP1 mRNA expression level in human HeLa cells at 20 to 40 uM measured after 4 to 8 hrs by RT-PCR analysis; assay type: functional, cell-based; conditions: dose 20-40 µM, time 4-8 hrs
[26] = biological target: T1, Keap1/Nrf2 (Homo sapiens); experiment: Inhibition of KEAP1 BTB domain-NRF2 protein-protein interaction in human NCI-H1299 cells assessed as upregulation of HO-1 expression at 1.25 to 20 uM measured after 6 hrs by Western blot analysis; assay type: cell-based; conditions: dose 1.25-20 µM
NCI-H1299 [27] = experiment: Protection against RSL3-induced ferroptosis in human NCI-H1299 cells at 10 uM preincubated for 6 hrs followed by RSL3 addition and measured after 18 hrs by phase contrast microscopy; assay type: functional, cell-based
[28] = biological target: Kelch-like ECH-associated protein 1 (Homo sapiens) (UniProt Q14145); experiment: Binding affinity to KEAP1 in human HCT-116 cells assessed as appearance of high molecular weight bands of modified KEAP1 at 2.5 to 40 uM measured after 18 hrs by Western blotting analysis; assay type: cell-based; conditions: dose 2.5-40 µM
HeLa [29] = experiment: Protection against erastin-induced ferroptosis in human HeLa cells assessed as reduction in cell death; assay type: functional, cell-based
[30] = biological target: T1, Keap1/Nrf2 (Homo sapiens); experiment: Inhibition of KEAP1 BTB domain-NRF2 protein-protein interaction in human HCT-116 cells assessed as upregulation of NRF2 level at 2.5 to 40 uM measured after 18 hrs by Western blotting analysis; assay type: cell-based; conditions: dose 2.5-40 µM
NCI-H1299 [31] = experiment: Protection against RSL3-induced ferroptosis in human NCI-H1299 cells assessed as reduction in cell death at 5 to 10 uM preincubated for 6 hrs followed by RSL3 addition and measured after 18 hrs by morphological analysis; assay type: functional, cell-based; conditions: dose 5-10 µM, time 24.0 hrs
[32] = biological target: T1, Keap1/Nrf2 (Homo sapiens); experiment: Inhibition of KEAP1 BTB domain-NRF2 protein-protein interaction in human HeLa cells assessed as upregulation of HO-1 level at 40 uM measured after 18 hrs by Western blotting analysis; assay type: cell-based
[33] = biological target: T1, Keap1/Nrf2 (Homo sapiens); experiment: Inhibition of KEAP1 BTB domain-NRF2 protein-protein interaction in human NCI-H1299 cells assessed as increase in nuclear localization of NRF2 at 20 uM measured after 18 hrs by immunostaining based microscopic analysis; assay type: cell-based
[34] = Inhibition of proteasome-mediated NRF2 degradation in human HeLa cells assessed as increase in NRF2 level at 10 uM measured after 6 hrs by Western blotting analysis; assay type: toxicity, cell-based

T1 sequence (Q14145 whole entry, looked up, the tested form may be a part): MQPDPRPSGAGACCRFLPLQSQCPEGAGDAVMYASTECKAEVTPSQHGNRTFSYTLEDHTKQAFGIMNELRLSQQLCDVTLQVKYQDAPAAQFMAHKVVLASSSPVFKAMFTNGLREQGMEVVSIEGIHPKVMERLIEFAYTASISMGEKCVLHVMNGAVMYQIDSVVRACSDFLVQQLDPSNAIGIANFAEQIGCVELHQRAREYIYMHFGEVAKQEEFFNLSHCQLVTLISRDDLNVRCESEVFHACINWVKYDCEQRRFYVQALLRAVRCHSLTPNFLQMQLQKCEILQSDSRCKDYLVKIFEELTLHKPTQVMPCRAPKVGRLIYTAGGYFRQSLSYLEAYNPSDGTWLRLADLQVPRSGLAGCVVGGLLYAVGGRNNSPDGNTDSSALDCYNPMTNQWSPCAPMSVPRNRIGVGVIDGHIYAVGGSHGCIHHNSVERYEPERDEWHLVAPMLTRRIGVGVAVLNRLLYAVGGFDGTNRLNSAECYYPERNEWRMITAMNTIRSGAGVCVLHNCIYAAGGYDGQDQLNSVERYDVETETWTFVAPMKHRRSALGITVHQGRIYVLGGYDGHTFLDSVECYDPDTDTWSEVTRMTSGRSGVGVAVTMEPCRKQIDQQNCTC
T1 sequence (Q16236 whole entry, looked up, the tested form may be a part): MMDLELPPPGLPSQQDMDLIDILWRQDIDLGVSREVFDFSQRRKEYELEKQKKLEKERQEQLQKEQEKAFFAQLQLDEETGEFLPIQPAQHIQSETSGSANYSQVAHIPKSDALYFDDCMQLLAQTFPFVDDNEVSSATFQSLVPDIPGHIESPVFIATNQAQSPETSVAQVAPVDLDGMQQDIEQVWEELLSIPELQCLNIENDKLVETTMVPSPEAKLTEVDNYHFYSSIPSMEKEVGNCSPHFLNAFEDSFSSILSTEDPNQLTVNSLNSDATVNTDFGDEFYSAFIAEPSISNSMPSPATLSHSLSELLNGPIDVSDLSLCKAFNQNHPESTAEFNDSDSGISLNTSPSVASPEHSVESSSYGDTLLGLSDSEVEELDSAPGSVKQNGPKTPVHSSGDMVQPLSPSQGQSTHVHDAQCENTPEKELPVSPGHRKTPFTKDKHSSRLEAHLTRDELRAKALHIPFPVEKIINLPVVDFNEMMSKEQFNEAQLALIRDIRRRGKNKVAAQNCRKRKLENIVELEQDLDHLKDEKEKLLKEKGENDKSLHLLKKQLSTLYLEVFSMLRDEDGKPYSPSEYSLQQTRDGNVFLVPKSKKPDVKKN
Kelch-like ECH-associated protein 1 (Homo sapiens), sequence (Q14145 whole entry, the tested form may be a part): as the sequence (Q14145 whole entry, looked up, the tested form may be a part) above

## CC1(C)CC[C@]2(C(=O)O)CC[C@]3(C)[C@H](C(=O)C=C4[C@@]5(C)C=C(C#N)C(=O)C(C)(C)[C@@H]5CC[C@]43C)[C@@H]2C1
[1]
  inhibition: Active

## CC1=C2C(CCS2(=O)=O)c2c(O)ccc(O)c2C1 (centres undefined)
[2]
  inhibition: Active
A549 [3]
  inhibition: inactive
HCT-116 [4]
  Activity: Toxic
A549 [5]
  inhibition: inactive
[6]
  inhibition: Active; Upregulated Nrf2 To A Lesser Degree
[7]
  inhibition: Active

## CC(C)(C)c1cc(O)ccc1O
[8]
  inhibition: Active

## CC1=C2C(CCS2(=O)=O)c2c(c(O)c3ccccc3c2O)C1 (centres undefined)
[9]
  inhibition: Active
[10]
  inhibition: Active
[11]
  inhibition: Active; Highly Upregulated
NCI-H1299 [12]
  Activity: Active; Almost Complete Protection Observed
[13]
  inhibition: Active; Significant Upregulation Observed
[14]
  inhibition: Active; Most Efficient Effect Was Observed After 8 Hrs
[15]
  inhibition: Active
HCT-116 [16]
  Activity: Non-toxic
[17]
  inhibition: Active
[18]
  inhibition: Active
HeLa [19]
  Activity: Non-toxic
[20]
  inhibition: inactive
[21]
  inhibition: Active; Significant Changes Observed
[22]
  Activity: Active
[23]
  inhibition: Active; Stronger Activation Of Nrf2 Observed
[24]
  inhibition: Active; Most Efficient Effect Was Observed After 8 Hrs
HeLa [25]
  Activity: inactive
[26]
  inhibition: Active
NCI-H1299 [27]
  Activity: Active; Slightly More Profound Effect Observed At 10 Um
[28]
  Activity: Active
HeLa [29]
  Activity: Active
[30]
  inhibition: Active; Stronger Activation Of Nrf2 Observed
NCI-H1299 [31]
  Activity: Active; Almost Complete Protection Observed
[32]
  inhibition: Active; Most Efficiently Upregulated The Ho-1 Level At 40 Um
[33]
  inhibition: Active

## CC(C)C[C@@H](C=O)NC(=O)[C@H](CC(C)C)NC(=O)[C@H](CC(C)C)NC(=O)OCc1ccccc1 [MG-132] (Cbz-Leu-Leu-Leu-aldehyde)
[34]
  inhibition (INH): Active
